Measurements taken from US7115624B1, “Method of inhibiting protein tyrosine phosphatase 1B and/or T-cell protein tyrosine phosphatase 4 and/or other PTPases with an Asp residue at position 48” (Novo Nordisk A/S, priority 1999, dated 2006).

Assays:
Format in all cases: biochemical
[1] = target: T1, LAR (Homo sapiens, UniProt P10586); assay: PTPase inhibition, p-nitrophenyl phosphate substrate, Ki; settings: pH 7.0 (Table 5); read-out: Ki values, LAR
T1 sequence (P10586 1285-1907 limits assumed): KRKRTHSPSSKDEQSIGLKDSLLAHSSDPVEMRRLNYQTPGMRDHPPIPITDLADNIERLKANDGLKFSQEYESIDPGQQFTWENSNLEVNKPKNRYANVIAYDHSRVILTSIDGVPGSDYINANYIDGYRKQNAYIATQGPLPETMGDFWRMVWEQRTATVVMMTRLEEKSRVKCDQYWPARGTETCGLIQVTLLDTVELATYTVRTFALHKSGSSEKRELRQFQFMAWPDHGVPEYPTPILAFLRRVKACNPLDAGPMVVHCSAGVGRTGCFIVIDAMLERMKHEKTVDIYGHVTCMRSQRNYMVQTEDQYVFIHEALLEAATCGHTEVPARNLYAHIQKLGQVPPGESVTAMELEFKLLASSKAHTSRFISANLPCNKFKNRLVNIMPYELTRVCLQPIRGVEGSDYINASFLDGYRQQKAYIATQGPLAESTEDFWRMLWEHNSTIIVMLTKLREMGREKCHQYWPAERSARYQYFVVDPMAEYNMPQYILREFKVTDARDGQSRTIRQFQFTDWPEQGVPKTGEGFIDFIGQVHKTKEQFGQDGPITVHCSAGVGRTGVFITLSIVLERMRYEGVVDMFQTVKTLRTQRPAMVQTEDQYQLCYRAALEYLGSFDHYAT
Experimental: The compounds are evaluated for biological activity with a truncated form of PTP1B (corresponding to the first 321 amino acids), which was expressed in E. coli and purified to apparent homogeneity using published procedures well-known to those skilled in the art. The enzyme reactions are carried out using standard conditions essentially as described by Burke et al. (Biochemistry 35; 15989–15996 (1996)) incorporated by reference. […] Appropriate concentrations of the compounds of the invention (e.g., 0.1 to 100 μM) are added to the reaction mixtures containing different concentrations of the substrate, p-nitrophenyl phosphate (range: 0.16 to 10 mM—final assay concentration). The buffer used was 50 mM HEPES pH 7.0, 100 mM sodium chloride, 0.1% (w/v) bovine serum albumin, 5 mM glutathione, and 1 mM EDTA. The reaction was started by addition of the enzyme and carried out in microtiter plates at 25° C. for 60 minutes. The reactions are stopped by addition of NaOH. The enzyme activity was determined by measurement of the absorbance at 405 nm with appropriate corrections for absorbance at 405 nm of the compounds and p-nitrophenyl phosphate. The data are analyzed using nonlinear regression fit to classical Michaelis Menten enzyme kinetic models. Inhibition is expressed as Ki values in μM.

[2] = target: T2, CD45 (Homo sapiens, UniProt P08575); assay: as above; settings: pH 7.0 (Table 5); read-out: Ki values, CD45
T2 sequence (P08575 599-1306 limits assumed): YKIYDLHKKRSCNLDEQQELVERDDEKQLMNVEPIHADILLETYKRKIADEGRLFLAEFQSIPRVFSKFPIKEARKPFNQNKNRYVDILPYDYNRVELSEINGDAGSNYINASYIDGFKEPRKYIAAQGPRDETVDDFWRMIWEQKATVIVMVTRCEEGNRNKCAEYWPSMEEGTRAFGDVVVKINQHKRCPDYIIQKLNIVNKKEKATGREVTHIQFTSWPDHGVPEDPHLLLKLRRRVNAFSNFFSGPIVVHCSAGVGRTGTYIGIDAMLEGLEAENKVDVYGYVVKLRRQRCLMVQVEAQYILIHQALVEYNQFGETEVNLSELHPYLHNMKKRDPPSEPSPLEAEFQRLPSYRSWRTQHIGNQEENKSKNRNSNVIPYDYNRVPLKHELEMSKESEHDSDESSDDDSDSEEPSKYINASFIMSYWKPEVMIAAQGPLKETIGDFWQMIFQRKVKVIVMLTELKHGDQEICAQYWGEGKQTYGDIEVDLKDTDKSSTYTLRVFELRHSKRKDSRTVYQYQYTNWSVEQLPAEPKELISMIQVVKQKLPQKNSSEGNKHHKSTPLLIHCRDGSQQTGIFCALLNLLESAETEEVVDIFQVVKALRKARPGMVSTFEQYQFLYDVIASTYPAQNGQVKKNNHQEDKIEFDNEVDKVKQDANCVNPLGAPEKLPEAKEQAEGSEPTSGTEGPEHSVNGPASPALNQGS
Experimental: (§3) The assay conditions are as follows. Appropriate concentrations of the compounds of the invention (e.g., 0.1 to 100 μM) are added to the reaction mixtures containing different concentrations of the substrate, p-nitrophenyl phosphate (range: 0.16 to 10 mM—final assay concentration). The buffer used was 50 mM HEPES pH 7.0, 100 mM sodium chloride, 0.1% (w/v) bovine serum albumin, 5 mM glutathione, and 1 mM EDTA. The reaction was started by addition of the enzyme and carried out in microtiter plates at 25° C. for 60 minutes. The reactions are stopped by addition of NaOH. […] The data are analyzed using nonlinear regression fit to classical Michaelis Menten enzyme kinetic models. Inhibition is expressed as Ki values in μM.

[3] = target: T3, PTPε (Homo sapiens, UniProt P23469); assay: as above; settings: pH 7.0 (Table 5); read-out: Ki values, PTPε
T3 construct: PTPε D1
Experimental: as §3

[4] = target: PTPα Q259G (Homo sapiens, UniProt P18433, Q483G); assay: Enzyme kinetic analysis with mutant PTPs, Ki; settings: pH 7.0
Experimental: To test directly, whether the above compound was addressing the proposed region of PTP1B, Compound N was subjected to detailed enzyme kinetic analyses using a set of wildtype (wt) and mutant PTPs.
The compounds are evaluated for biological activity with a truncated form of PTP1B (corresponding to the first 321 amino acids), which was expressed in E. coli and purified to apparent homogeneity using published procedures well-known to those skilled in the art. The enzyme reactions are carried out using standard conditions essentially as described by Burke et al. (Biochemistry 35; 15989–15996 (1996)) incorporated by reference. The assay conditions are as follows. Appropriate concentrations of the compounds of the invention (e.g., 0.1 to 100 μM) are added to the reaction mixtures containing different concentrations of the substrate, p-nitrophenyl phosphate (range: 0.16 to 10 mM—final assay concentration). The buffer used was 50 mM HEPES pH 7.0, 100 mM sodium chloride, 0.1% (w/v) bovine serum albumin, 5 mM glutathione, and 1 mM EDTA. […] The enzyme activity was determined by measurement of the absorbance at 405 nm with appropriate corrections for absorbance at 405 nm of the compounds and p-nitrophenyl phosphate. The data are analyzed using nonlinear regression fit to classical Michaelis Menten enzyme kinetic models. Inhibition is expressed as Ki values in μM.

[5] = target: PTPβ (Homo sapiens, UniProt P23467); assay: PTPase inhibition, p-nitrophenyl phosphate substrate, Ki; settings: pH 7.0 (Table 5); read-out: Ki values, PTPβ
[6] = target: T4, GLEPP1 (Homo sapiens, UniProt Q16827); assay: as above; settings: pH 7.0 (Table 5)
T4 sequence (Q16827 938-1195 limits assumed): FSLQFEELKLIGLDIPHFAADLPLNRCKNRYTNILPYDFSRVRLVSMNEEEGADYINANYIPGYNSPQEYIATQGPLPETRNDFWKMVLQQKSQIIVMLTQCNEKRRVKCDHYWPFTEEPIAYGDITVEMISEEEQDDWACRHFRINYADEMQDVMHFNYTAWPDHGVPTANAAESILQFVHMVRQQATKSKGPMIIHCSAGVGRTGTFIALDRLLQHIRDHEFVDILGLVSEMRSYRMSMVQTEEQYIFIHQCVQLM
Experimental: (§1) Specificity against a broad set of PTPs—It was next analyzed if the side chain of NNC 52–1153 would cause the increased selectivity against other PTPs. NNC 52–1153 was tested against a set of 10 different wt PTP domains (Table 5). It appears from this table that a substantial increase in affinity for PTP1B and TC-PTP has been obtained, while at the same time introducing a very high degree of selectivity against many other PTPs representing a broad spectrum of this class of enzymes (having Asp 48).
(§2) The assay conditions are as follows.

[7] = target: T5, TC-PTP (Homo sapiens, UniProt P17706); assay: as above; settings: pH 7.0 (Table 5)
T5 sequence (P17706 5-275 limits assumed): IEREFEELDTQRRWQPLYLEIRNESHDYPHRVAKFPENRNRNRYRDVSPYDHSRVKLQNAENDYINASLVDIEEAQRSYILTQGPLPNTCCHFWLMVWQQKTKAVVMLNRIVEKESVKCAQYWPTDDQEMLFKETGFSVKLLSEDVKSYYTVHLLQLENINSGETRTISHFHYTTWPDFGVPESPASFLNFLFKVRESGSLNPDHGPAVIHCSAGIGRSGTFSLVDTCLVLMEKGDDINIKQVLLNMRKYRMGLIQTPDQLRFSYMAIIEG
Experimental: as §1, §2

[8] = target: T6, PTP1B (Homo sapiens, UniProt P18031); assay: as above; settings: pH 7.0; wt (Table 4); read-out: Ki values, PTP1B wt
T6 sequence (P18031 1-321): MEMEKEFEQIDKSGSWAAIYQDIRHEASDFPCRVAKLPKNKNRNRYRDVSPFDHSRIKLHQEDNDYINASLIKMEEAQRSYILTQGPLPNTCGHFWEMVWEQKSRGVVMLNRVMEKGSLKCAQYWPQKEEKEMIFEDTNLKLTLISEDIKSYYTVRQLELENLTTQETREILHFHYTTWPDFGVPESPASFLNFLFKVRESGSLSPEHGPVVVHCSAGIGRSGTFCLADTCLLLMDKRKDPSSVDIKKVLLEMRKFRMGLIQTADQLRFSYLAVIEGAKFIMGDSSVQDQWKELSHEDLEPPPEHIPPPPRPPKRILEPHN
Experimental: as §3

Sequence of PTPα Q259G (P18433 211-512 Q483G limits assumed): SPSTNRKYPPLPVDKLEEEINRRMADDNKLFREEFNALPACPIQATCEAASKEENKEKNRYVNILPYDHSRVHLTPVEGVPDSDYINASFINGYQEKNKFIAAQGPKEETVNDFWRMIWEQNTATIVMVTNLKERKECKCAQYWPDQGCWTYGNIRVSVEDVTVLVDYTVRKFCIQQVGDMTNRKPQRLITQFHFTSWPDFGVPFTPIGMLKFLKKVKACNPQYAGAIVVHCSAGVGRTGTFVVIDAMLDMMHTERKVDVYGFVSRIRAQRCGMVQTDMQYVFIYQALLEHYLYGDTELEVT
Sequence of PTPβ (P23467 1703-1963 limits assumed): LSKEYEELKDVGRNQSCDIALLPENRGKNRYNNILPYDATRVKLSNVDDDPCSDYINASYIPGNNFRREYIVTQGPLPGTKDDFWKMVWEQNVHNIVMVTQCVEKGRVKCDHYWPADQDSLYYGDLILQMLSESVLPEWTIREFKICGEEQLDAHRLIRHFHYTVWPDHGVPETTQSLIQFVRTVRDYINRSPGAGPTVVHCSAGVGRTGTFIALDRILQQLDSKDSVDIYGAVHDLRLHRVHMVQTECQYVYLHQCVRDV
T3 sequence (P23469 135-394 limits assumed): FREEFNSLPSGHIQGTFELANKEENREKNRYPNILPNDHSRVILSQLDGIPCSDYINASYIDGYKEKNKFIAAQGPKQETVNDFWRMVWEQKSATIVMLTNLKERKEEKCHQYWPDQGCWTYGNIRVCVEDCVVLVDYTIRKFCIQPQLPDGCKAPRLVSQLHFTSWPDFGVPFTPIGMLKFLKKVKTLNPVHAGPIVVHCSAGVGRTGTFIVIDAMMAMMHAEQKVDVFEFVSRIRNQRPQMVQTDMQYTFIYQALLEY

With `O=C(O)C(=O)Nc1sc2c(c1C(=O)O)CCOC2COC1=NS(=O)(=O)c2ccccc21` (centres unmarked) [Compound N, 7-(1,1-dioxo-1H-benzo[d]isothiazol-3-yloxymethyl)-2-(oxalyl-amino)-4,7-dihyd ro-5H-thieno[2,3-c]pyran-3-carboxylic acid] the Ki [1] was 120 µM, the Ki [2] was 500 µM and the Ki [3] was 460 µM. It also gave a Ki [4] of 70 µM, a Ki [5] of 15 µM and a Ki [6] of 150 µM. It also gave a Ki [7] of 0.6 µM and a Ki [8] of 0.4 µM.
